Source: patent US8575091B1, “Amylin analogues and pharmaceutical compositions thereof” (Novo Nordisk A/S, priority 2012, dated 2013)
Like-named read-outs stand apart in the source and are kept apart here. Numbered stars: 1 amine (or outer) side, 2 acyl side, 3 side chain; on linkers, the order of the positions; unused ones are H or OH. Bridge positions count the residues as written; N and C are the ends. Peptide text beside a SMILES is read from it. * marks the point of attachment. C20 diacid = O=C(O)CCCCCCCCCCCCCCCCCCC(=O)*; γGlu = O=C(O)[C@H](CCC(=O)[*:2])N[*:1]

Key:
[1] = molecular target: T1, human calcitonin receptor (Homo sapiens, UniProt P30988); assay: Assay (VII) binding to the human calcitonin receptor (SPA, 125I-Calcitonin); settings: read-out: hCTR bind IC50;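 further: cell membranes coupled to SPA beads, competitive displacement read by scintillation counting, IC50 derived from a one-site competition fit as a measure of receptor affinity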
T1 construct: expressed in transfected cells
T1 sequence (P30988 25-474): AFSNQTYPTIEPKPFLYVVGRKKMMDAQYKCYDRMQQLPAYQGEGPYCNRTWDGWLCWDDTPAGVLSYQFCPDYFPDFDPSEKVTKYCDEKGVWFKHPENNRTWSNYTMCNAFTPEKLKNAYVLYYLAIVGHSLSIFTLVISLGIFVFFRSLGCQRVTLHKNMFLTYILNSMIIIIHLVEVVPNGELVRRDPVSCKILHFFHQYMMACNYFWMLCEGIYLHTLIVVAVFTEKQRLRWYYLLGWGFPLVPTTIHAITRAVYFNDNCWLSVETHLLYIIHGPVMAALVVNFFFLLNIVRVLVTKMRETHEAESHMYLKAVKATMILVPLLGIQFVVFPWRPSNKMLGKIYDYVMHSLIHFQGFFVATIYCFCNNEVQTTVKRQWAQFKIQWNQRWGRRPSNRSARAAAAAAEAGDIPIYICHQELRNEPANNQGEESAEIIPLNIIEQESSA

[2] = molecular target: T2, human amylin receptor (amylin 3(a) receptor: human calcitonin receptor + RAMP-3) (Homo sapiens, UniProt O60896+P30988); assay: Assay (II)a functional assay, human amylin receptor (CRE luciferase, BHK cells); assay type: cell-based; settings: for EC50: read-out: hAmylin-R funct. EC50
T2 construct: expressed in transfected cells
T2 sequence (P30988 25-474): T1 sequence (P30988 25-474)
T2 sequence (O60896 24-148 partner): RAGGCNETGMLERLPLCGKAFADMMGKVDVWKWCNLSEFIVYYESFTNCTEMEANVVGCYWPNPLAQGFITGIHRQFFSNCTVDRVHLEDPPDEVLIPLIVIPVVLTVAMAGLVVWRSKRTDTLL

rat amylin receptor = molecular target: T3, rat amylin receptor (Rattus norvegicus, UniProt P32214+Q9JJ73); assay: Assay (VI) binding to the rat amylin receptor; settings: rCTR bind IC50 divided by rAmylin-R bind IC50
T3 construct: expressed in transfected cells; host or cells: BHK tk'ts 13 (transient, FuGENE 6), membranes
T3 sequence (P32214 25-479 isoform P32214-2 limits assumed): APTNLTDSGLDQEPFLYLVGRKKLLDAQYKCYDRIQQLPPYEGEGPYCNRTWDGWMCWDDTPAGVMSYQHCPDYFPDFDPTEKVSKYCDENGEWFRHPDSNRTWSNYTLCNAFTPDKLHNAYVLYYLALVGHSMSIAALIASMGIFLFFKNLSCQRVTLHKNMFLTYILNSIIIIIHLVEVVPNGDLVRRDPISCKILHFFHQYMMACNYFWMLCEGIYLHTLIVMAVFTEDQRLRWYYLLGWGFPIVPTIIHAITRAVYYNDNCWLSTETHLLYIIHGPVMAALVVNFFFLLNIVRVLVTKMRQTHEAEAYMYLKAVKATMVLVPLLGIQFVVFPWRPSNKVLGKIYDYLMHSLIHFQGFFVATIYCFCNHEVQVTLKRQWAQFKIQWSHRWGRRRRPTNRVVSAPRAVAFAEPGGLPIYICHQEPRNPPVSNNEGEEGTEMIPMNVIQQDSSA
T3 sequence (Q9JJ73 23-147 partner): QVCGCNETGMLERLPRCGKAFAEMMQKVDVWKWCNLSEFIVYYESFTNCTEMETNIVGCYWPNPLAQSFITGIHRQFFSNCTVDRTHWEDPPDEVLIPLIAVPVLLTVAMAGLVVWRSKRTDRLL
Experimental: Assay (VI)—Determination of the Binding to the Rat Amylin Receptor
The assay was performed as described above (Assay (V)—Determination of binding to the human amylin receptor) with the exception that we used membranes prepared from BHK tk'ts 13 cells that were transiently transfected with the rat calcitonin receptor rat RAMP 3 at an equimolar ratio […]. The BHK tk'ts 13 cells were transiently transfected with rat calcitonin receptor using FuGENE® 6 (Roche), according to the manufacturer's recommendations. Cells were grown in DMEM with 10% FBS and 1% Pen/Strep. Approximately 48 hours after transfection, the cells were harvested and membranes were prepared.

[3] = molecular target: T1, human calcitonin receptor; assay: Assay (II)a functional assay, human calcitonin receptor (CRE luciferase, BHK cells);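 further: luminescence from a CRE-driven luciferase reporter, read by single photon counting after cells were exposed to test samples for 3 h at 37 °C under 5% CO2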; assay type: cell-based; settings: read-out: hCTR funct. EC50
human amylin receptor = molecular target: T4, human amylin receptor (Homo sapiens, UniProt O60896+P30988); assay: Assay (V) binding to the human amylin receptor (SPA, 125I-rat amylin); settings: human amylin receptor membranes, SPA; read-out: hAmylin-R bind IC50
T4 construct: expressed in transfected cells
T4 sequence (P30988 25-474): T1 sequence (P30988 25-474)
T4 sequence (O60896 24-148 partner): T2 sequence (O60896 24-148 partner)
Summary of the method: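 SPA competition binding on membranes from Amylin 3(a)/CRE-luc cells, 35 ng/μL membranes with 0.05 mg/well beads. Buffer 50 mM Hepes pH 7.4, 1 mM CaCl2, 5 mM MgCl2, 0.1% OA, 0.02% Tween20. IC50 from one-site competition fit as affinity measure.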

[4] = Table 6, human functional selectivity (hCTR EC50 / hAmylin-R EC50)
[5] = Table 6a, human functional selectivity (hCTR EC50 / hAmylin-R EC50), at least 5
[6] = Table 6j, hCTR funct. EC50 / hAmylin-R funct. EC50
[7] = Table 6k, hCTR funct. EC50 / hAmylin-R funct. EC50

SMILES	IC50 [1]	Ratio hCT/hAmylin funct. [2, 4]	Ratio hCT/hAmylin funct. [2, 5]	Ratio hCT/hAmylin funct. [2, 6]	Ratio hCT/hAmylin funct. [2, 7]	EC50 ([2]; functional assay, human amylin receptor)	Ratio rCT/rAmylin binding (rat amylin receptor; Table 7b)	Ratio rCT/rAmylin binding (rat amylin receptor)	EC50 [3]	IC50 (human amylin receptor)	Ratio hCT/hAmylin funct. ([2]; Table 6i, hCTR funct. EC50 / hAmylin-R funct. EC50)	EC50 ([2]; Table 6i, human amylin receptor functional)
CC[C@H](C)[C@H](NC(=O)[C@H](C)NC(=O)CNC(=O)[C@H](Cc1ccccc1)NC(=O)[C@H](CC(N)=O)NC(=O)[C@@H]1CCCN1C(=O)[C@H](CO)NC(=O)[C@H](CO)NC(=O)[C@H](Cc1c[nH]cn1)NC(=O)[C@H](CCCNC(=N)N)NC(=O)[C@H](CC(C)C)NC(=O)[C@H](Cc1ccccc1)NC(=O)[C@H](CC(N)=O)NC(=O)[C@H](C)NC(=O)[C@H](CC(C)C)NC(=O)[C@H](CCCNC(=N)N)NC(=O)[C@H](CCC(N)=O)NC(=O)[C@@H](NC(=O)[C@H](C)NC(=O)[C@@H]1CSSC[C@H](NC(=O)[C@H](CCCCN)NC(=O)CC[C@H](NC(=O)CCCCCCCCCCCCCCCCCCC(=O)O)C(=O)O)C(=O)N[C@@H](CC(N)=O)C(=O)N[C@@H]([C@@H](C)O)C(=O)N[C@@H](C)C(=O)N[C@@H]([C@@H](C)O)C(=O)N1)[C@@H](C)O)C(=O)N1CCC[C@H]1C(=O)N[C@@H](CO)C(=O)N[C@@H](CO)C(=O)N[C@H](C(=O)N[C@@H](CC(N)=O)C(=O)N[C@H](C(=O)NCC(=O)N1CCC[C@H]1C(=O)N[C@@H](CCC(=O)O)C(=O)N[C@H](C(=O)N[C@@H](Cc1ccc(O)cc1)C(N)=O)[C@@H](C)O)C(C)C)[C@@H](C)O [Example 29] ({C20 diacid-γGlu}-KCNTATCATQRLANFLRHSSPNFGAIPSSTNVGPETY-NH2; disulfide 2-7)	8.01 nM	8.7	8.7	8.7	8.7	0.099 nM	67.0	67.0	0.857 nM	0.577 nM		
CC[C@H](C)[C@H](NC(=O)[C@H](C)NC(=O)CNC(=O)[C@H](Cc1ccccc1)NC(=O)[C@H](CC(N)=O)NC(=O)[C@@H]1CCCN1C(=O)[C@H](CO)NC(=O)[C@H](CO)NC(=O)[C@H](Cc1c[nH]cn1)NC(=O)[C@H](CCCNC(=N)N)NC(=O)[C@H](CC(C)C)NC(=O)[C@H](Cc1ccccc1)NC(=O)[C@H](CCC(=O)O)NC(=O)[C@H](C)NC(=O)[C@H](CC(C)C)NC(=O)[C@H](CCCNC(=N)N)NC(=O)[C@H](CCC(N)=O)NC(=O)[C@@H](NC(=O)[C@H](C)NC(=O)[C@@H]1CSSC[C@H](NC(=O)[C@H](CCCCN)NC(=O)CC[C@H](NC(=O)CCCCCCCCCCCCCCCCCCC(=O)O)C(=O)O)C(=O)N[C@@H](CC(N)=O)C(=O)N[C@@H]([C@@H](C)O)C(=O)N[C@@H](C)C(=O)N[C@@H]([C@@H](C)O)C(=O)N1)[C@@H](C)O)C(=O)N1CCC[C@H]1C(=O)N[C@@H](CO)C(=O)N[C@@H](CO)C(=O)N[C@H](C(=O)N[C@@H](CC(N)=O)C(=O)N[C@H](C(=O)NCC(=O)N1CCC[C@H]1C(=O)N[C@@H](CC(N)=O)C(=O)N[C@H](C(=O)N[C@@H](Cc1ccc(O)cc1)C(N)=O)[C@@H](C)O)C(C)C)[C@@H](C)O [Example 32] ({C20 diacid-γGlu}-KCNTATCATQRLAEFLRHSSPNFGAIPSSTNVGPNTY-NH2; disulfide 2-7)	1.09 nM	6.6	6.6	6.6	6.6		34.0	34.0	0.327 nM	0.1 nM	6.6	0.05 nM
